Results published in patent US11298314B2, “Injectable composition for localized fat reduction without pain, edema, and side effects, and method for preparing same” (AMI PHARM CO., LTD., priority 2017, dated 2022).

Assays:
inguinal fat pad = details: 0.2 ml s.c. once into inguinal fat pad, 8 days post-injection
[1] = tested on: tissues of the injected area (rat paw); assay: H&E staining histological test (inflammation) of injected rat paw; assay type: in vivo, Sprague Dawley rats; details: bile acid single composition 1.0% (w/v), injected rat paw
Description: The tissues of the injected area were dissected, fixed with 10% formalin, and then the specimen was prepared and images were captured using an optical microscope. The degree of inflammation was evaluated as follows.

sole of the rat paws = assay: Measurement of skin lesion (erythema) on rat paw; assay type: in vivo, Sprague Dawley rats; details: for skin lesion (erythema) in words: 2 hours after administration;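 on grade of skin lesion (erythema), 1 hour after administration: grades − to ++++ mean no to extremely severe erythema versus before injection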;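 on grade of skin lesion (erythema), 2 hours after administration: grades − to ++++ mean no to extremely severe erythema versus before injection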;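 on grade of skin lesion (erythema), Immediately after administration: grades − to ++++ mean no to extremely severe erythema versus before injection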
Description: (§1) To evaluate the degree of edema, each test compositions described above were injected into the paw of the rats. Specifically, male Sprague Dawley rats (6 weeks old) were purchased and used after one week of adaptation. The rats (body weight: 170˜200 g) were randomly selected and the thickness of the rat paw were measured with a caliper before the administration of the test compositions. In order to observe the edema, 0.1 ml of PBS and the various test compositions were administered to the paws of the rats. Measurements of the […] were performed by a caliper immediately before the injection, immediately after the injection, and 1 or 2 hours after the injection. In addition, when the thickness was measured, the skin lesion of the injection site was observed by photographing the sole of the paw (using a 4×4 cm scale).
The grades of skin lesion were evaluated as 0 to 4 grades.

[2] = Formulation stability of PPC injectable preparations: property, transparency, particle size, pH
Description: The particle size was measured using a nano particle size analyzer (Microtrac Wave, MICROTRACT, USA). […] The transparency was measured using a spectrophotometer (CM-3600d, KONICA MINOLTA, JAPAN). The pH was measured with a pH meter (ST3100, OHAUS, GERMANY), and the isotonicity was measured with an osmotic pressure meter (Vapro 5600, Elitech Group, Tokyo, Japan), and viscosity was analyzed using a viscometer (Digital Viscometer CL-2, CAS, Korea).
The washed and sterilized preparation tank was charged with the water for injection (at room temperature), and phosphatidylcholine (PPC) and benzyl alcohol were added thereto, and the mixture was stirred at 200 RPM for 2 hours under the condition of nitrogen pressure, shading and room temperature. After the completion of stirring, the mixture was transferred to an ultra-high pressure homogenizer (Nano Disperser NLM100, Ilshin Autoclave, Korea) with a nitrogen pressure. Ultra-high pressure homogenization (dispersion) was carried out at 12,000 psi for 7 cycles, and the particles were finely pulverized. Then, the pH was adjusted. After filtration through a 0.2 μm filter, the vial was filled and sealed.
Specifically, the water for injection was put into the preparation tank which was cleaned and sterilized (room temperature), and sodium hydroxide was added to the water for injection. Then deoxycholic acid and benzyl alcohol were added, stirred and dissolved. Then, phosphatidylcholine was added thereto, and the mixture was stirred at 200 RPM for about 24 hours under shading, sealing, room temperature (25° C.), and nitrogen pressure. After completion of the stirring, the pH was adjusted (if necessary, with additional sodium hydroxide or hydrochloric acid), and it was filtered through a 0.2 μm filter, and filled into the vial and sealed.
Then glycocholic acid and benzyl alcohol were added, stirred and dissolved. Then, phosphatidylcholine was added thereto, and the mixture was stirred at 200 RPM for about 24 hours under shading, sealing, room temperature (25° C.), and nitrogen pressure. After completion of the stirring, the pH was adjusted (if necessary, with additional sodium hydroxide or 0.001-0.6% of hydrochloric acid), and it was filtered through a 0.2 μm filter, and filled into the vial and sealed.
The formulation stability of the PPC injectable compositions solubilized with glycocholic acid (GCA) in Tables 3 and 4 was evaluated immediately after the preparation and 30 days after the preparation (refrigerated storage).

paw of the rats = assay: Rat paw edema; assay type: in vivo, Sprague Dawley rats; details: for degree of edema in words: 2 hours after administration, rat paw; for degree of edema, 1 hour after administration / degree of edema, 2 hours after administration / degree of edema, Immediately after administration: 0.1 ml into rat paw
Description: as §1
The degree of edema was evaluated as 0 to 4 grades.

[3] = bile acid single composition 1.0% (w/v)
[4] = bile acid single composition 2.5% (w/v)
[5] = bile acid single composition 5.0% (w/v)
[6] = bile acid single composition 7.5% (w/v)

## CC(C)NCC(O)c1ccc(O)c(O)c1 (centres unmarked) [Isuprel]
Inguinal fat pad
  histological change of adipocytes in fat tissue: size of the adipocytes was reduced

## C[C@H](CCC(=O)O)[C@H]1CC[C@H]2[C@@H]3[C@@H](O)C[C@@H]4C[C@H](O)CC[C@]4(C)[C@H]3CC[C@]12C [UDCA, (4R)-4-[(3R,5S,7S,8R,9S,10S,13R,14S,17R)-3,7-dihydroxy-10,13-dimethyl-2,3,4,5,6,7,8,9,11,12,14,15,16,17-tetradecahydro-1H-cyclopenta[a]phenanthren-17-yl]pentanoic acid]
[1]
  Inflammation (H&E), BA % (w/v) 1.0: +++
Sole of the rat paws; listed as UDCA 1.0%
  skin lesion (erythema) in words: Moderate
Sole of the rat paws; listed as UDCA 2.5%
  skin lesion (erythema) in words: “severe” and “extremely severe”
Sole of the rat paws; [3]
  grade of skin lesion (erythema), 1 hour after administration: ++
  grade of skin lesion (erythema), 2 hours after administration: ++
  grade of skin lesion (erythema), Immediately after administration: +
Sole of the rat paws; [4]
  grade of skin lesion (erythema), 1 hour after administration: ++
  grade of skin lesion (erythema), 2 hours after administration: +++
  grade of skin lesion (erythema), Immediately after administration: ++
Sole of the rat paws; [5]
  grade of skin lesion (erythema), 1 hour after administration: ++++
  grade of skin lesion (erythema), 2 hours after administration: ++++
  grade of skin lesion (erythema), Immediately after administration: ++
Sole of the rat paws; [6]
  grade of skin lesion (erythema), 1 hour after administration: ++++
  grade of skin lesion (erythema), 2 hours after administration: ++++
  grade of skin lesion (erythema), Immediately after administration: ++
[2]; PPC 5.0%
  bile acid/PPC molar ratio below which a substantially stable formulation did not occur: less than 1.12
[2]; based on PPC 5.0%
  bile acid concentration at which stable injectable preparations can be made: ≥ 2.7%
Paw of the rats; listed as UDCA 1.0%
  degree of edema in words: moderate
Paw of the rats; listed as UDCA 2.5%
  degree of edema in words: “severe” and “extremely severe”
Paw of the rats; [3]
  degree of edema, 1 hour after administration: ++ (moderate edema [++, (the degree of swelling was 20-40% compared to before the injection)])
  degree of edema, 2 hours after administration: ++ (moderate edema [++, (the degree of swelling was 20-40% compared to before the injection)])
  degree of edema, Immediately after administration: ++ (moderate edema [++, (the degree of swelling was 20-40% compared to before the injection)])
Paw of the rats; [4]
  degree of edema, 1 hour after administration: +++ (severe edema [+++, (the degree of swelling was 40-60% compared to before the injection)])
  degree of edema, 2 hours after administration: ++++ (extremely severe edema [++++, (the degree of swelling was 60% or more compared to before the injection)])
  degree of edema, Immediately after administration: ++ (moderate edema [++, (the degree of swelling was 20-40% compared to before the injection)])
Paw of the rats; [5]
  degree of edema, 1 hour after administration: ++++ (extremely severe edema [++++, (the degree of swelling was 60% or more compared to before the injection)])
  degree of edema, 2 hours after administration: ++++ (extremely severe edema [++++, (the degree of swelling was 60% or more compared to before the injection)])
  degree of edema, Immediately after administration: ++ (moderate edema [++, (the degree of swelling was 20-40% compared to before the injection)])
Paw of the rats; [6]
  degree of edema, 1 hour after administration: ++++ (extremely severe edema [++++, (the degree of swelling was 60% or more compared to before the injection)])
  degree of edema, 2 hours after administration: ++++ (extremely severe edema [++++, (the degree of swelling was 60% or more compared to before the injection)])
  degree of edema, Immediately after administration: ++ (moderate edema [++, (the degree of swelling was 20-40% compared to before the injection)])
